{"source": "patent US20040109845A1", "about": "“Method for inhibiting articular cartilage matrix calcification” (priority 2001, published 2004)", "assay_type_in_all_cases": "cell-based, human", "key": {"[1]": {"test_system": "TGase activity (tTGase and Factor XIIIa) in meniscal cells", "experiment": "TGase activity in cultured knee meniscal cells (BP incorporation into N,N-dimethylcasein)", "settings": "monolayer culture, 48-72 hrs; IL-1β, TGFβ, TNFα 10 ng/ml; Noc-12 2.5-25 μM; Sin-1 1-10 μM", "procedure": "Meniscal cells were maintained in DMEM high glucose and supplemented with 10% FCS, 1% L-glutamine, 100 units/ml Penicillin and 50 μg/ml Streptomycin (Omega Scientific, Tarzana, Calif.) and cultured at 37° C. with 5% CO2. In monolayer cell culture studies involving stimulation by TGFE[…] or IL-1, the cells were placed in DMEM high glucose containing 1% FCS, 1% L-glutamine, 100 units/ml Penicillin and 50 μg/ml Streptomycin. In all other studies, the cells were cultured in complete medium (as described above). Only primary or first passage meniscal cells were studied.\nTGase activity was measured by modifications to a previously described method (35). Specifically, we coated 96 well ImmunoModule plates (Nunc, Rochester, N.Y.) with 200 μl of 20 mg/ml N,N-dimethylcasein for 1 hr at 23° C. The N,N-dimethylcasein was removed and nonspecific protein binding was blocked by adding 3% BSA in 100 mM Tris, pH 8.5, 150 mM NaCl, 0.05% Tween-20 (TBST) to each well for an additional 1 hr at 23° C. Then, aliquots of 5 μg of total cellular protein from meniscal or TC28 cells that had been lysed and sonicated (in 5 mM Tris HCl, 0.25 M sucrose, 0.2 mM MgSO4, 2 mM DTT, 0.4 mM PMSF, 0.4% Triton X100, pH 7.5), were added to the plate in triplicate. To measure TGase in extracts of whole menisci, 50 mg dry weight of tissue from the central zone of each medial meniscus was used as the source (after solubilization and sonication) for aliquots of 5 μg of soluble protein. Fifty μl of solution A (100 mM Tris, pH 8.5 and 20 mM CaCl2) was added to all samples for TGase assay, followed by the addition of 50 μl of solution B (100 mM Tris, pH 8.5, 40 mM DTT and freshly added 2 mM 5-(Biotinamido) pentylamine (BP)). The plates were incubated for 1 hr at 37° C. The wells were washed once with TBST containing 1 mM EDTA and then three times with TBST. One hundred μl of a 1:500 dilution of streptavidin-AP in 3% BSA/TBST was added to each well for 1 hr at 23° C. The wells were washed twice with TBST, and 200 μl of solution C (100 mM Tris, pH 9.8, mM NaCl, 5 mM MgCl2, 1 mg/ml of freshly added p-nitrophenylphosphate) was added to each well. Readings at OD410 were taken over 15 minutes. Purified guinea pig liver TGase (Sigma) was used to prepare a standard curve. TGase activity was designated as the amount of BP incorporated into casein (per μg cellular DNA, determined chromogenically following precipitation in perchlorate (28), or, where indicated, per μg protein, determined as previously described (28)).\nTo directly induce expression of each TGase in meniscal cells, 5×10^5 primary cells were plated in 60 mm dishes and allowed to adhere overnight. We modified (28) the manufacturer's protocol for the Lipofectamine Plus kit (Life Technologies, Grand Island, N.Y.). To optimize the transfection of meniscal cells, we added 2.0 ml of serum-free DMEM/F12 containing 0.00015% digitonin to washed cells and incubated for 3 min at 23° C. Then, media was removed, and cells transfected at 37° C. for 7 hrs, followed by removal of the media and addition of complete DMEM high glucose medium. Transfection of each TGase into TC28 cells was done by the same procedure, with the exception that the digitonin permeabilization step was omitted."}, "[2]": {"test_system": "tTGase and Factor XIIIa expression in knee articular cartilage and medial meniscus", "experiment": "Immunohistochemistry of cartilage organ culture", "settings": "organ culture 48 hours", "procedure": "Articular cartilage and medial menisci from normal donors were studied in cartilage organ culture in media supplemented with 1% FCS and 1% L-glutamine, as described in the Methods, following 48 hours of treatment with TGFβ 10 ng/ml, IL-1β (1 ng/ml), or medium alone.\nImmunohistochemistry was performed as previously described in detail (30,33,34). In brief, immunohistochemical sections (5 microns) were pretreated with bovine testicular hyaluronidase (0.5 mg/ml at 37° C. for 30 min) and incubated in 5% normal goat or rabbit serum for 20 min prior to avidin/biotin peroxidase staining by the ABC method. Hematoxilin was used as the counterstain. Biotinylated anti-rabbit or anti-goat antibodies served as secondary antibodies. Levamisole was added to block endogenous alkaline phosphatase (AP). Negative controls were nonimmune rabbit or goat serum as a substitute for primary antibody.\nMeniscal cells were taken from tissue slices removed from the central regions of the medial and lateral menisci. Where indicated, meniscal organ culture was performed by incubating these slices for b 48 hours in DMEM high glucose containing 1% FCS and 1% L-glutamine (and articular cartilage organ culture performed in the same manner, where indicated). Otherwise, we minced meniscal tissue with a scalpel, incubated in DMEM high glucose containing 2 mg/ml clostridial collagenase, 5% FCS, 1% L-glutamine, 100 units/ml Penicillin and 50 μg/ml Streptomycin (Omega Scientific, Tarzana, Calif.), and incubated on a gyratory shaker at 37° C. until the tissue fragments were digested. Residual multicellular aggregates were removed by sedimentation (1,000×g), and cells were washed three times in DMEM containing 5% FCS."}, "[3]": {"test_system": "alkaline phosphatase (AP)", "experiment": "AP activity of cultured meniscal cells", "settings": "48 h, 10 ng/ml", "procedure": "Meniscal cells (from the same donors used in FIG. 3 above) were released from the matrix with collagenase digestion, and grown in monolayer culture for 72 hrs, then trypsinized and plated in 35 mm dishes (containing 3×10^5 cells) and allowed to adhere overnight. Cells were then treated for 48 h with 10 ng/ml of TGFβ or IL-1β (10 ng/ml) in 1% FCS-containing DMEM high glucose medium. The cells were collected and lysed for the TGase (FIG. 5A), NTPPPH (FIG. 5B), and AP (FIG. 5C) assays as described in the Methods. Five micrograms of soluble protein was studied in triplicate for each assay performed as previously described. Results were analyzed by linear regression, with results indicated.\nPPi was determined by differential adsorption on activated charcoal of UDP-D-[6-^3H] glucose (Amersham, Chicago, Ill.) from the reaction product 6-phospho [6-^3H] gluconate (28). Units of NTPPPH and AP were designated as micromoles of substrate hydrolyzed per hour (per μg DNA in each sample) (28). NO release by cultured meniscal cells was measured using the Greiss reaction (33). Concentrations or specific activities of PPi, NTPPPH, and AP were equalized for cellular DNA concentrations in each well."}}, "data": [{"substance": "IL-1β: Human recombinant IL-1β purchased from R&D Systems", "values": [{"measurement": "Induction of TGase activity in cultured normal knee meniscal cells", "setting": "[1]", "value": "induced increased TGase activity in a donor age-dependent manner"}, {"measurement": "tTGase and Factor XIIIa immunostaining", "setting": "[2]; knee articular cartilage and meniscal cartilage slices, TGFβ 10 ng/ml, IL-1β 1 ng/ml", "value": "induced increased tTGase and Factor XIIIa immunostaining"}, {"measurement": "Factor XIIIa expression", "setting": "[2]; knee articular cartilage", "value": "up-regulated"}, {"measurement": "tTGase expression", "setting": "[2]; knee articular cartilage", "value": "up-regulated tTGase expression"}, {"measurement": "AP activity", "setting": "[3]", "value": "did not significantly change"}]}]}
